Results reported in publication PMC8838850, “Synthesis, Antimicrobial, Anti-Virulence and Anticancer Evaluation of New 5(4H)-Oxazolone-Based Sulfonamides” (Molecules, 2022).
Converted amounts (≈) assume the structure as drawn.

How the values were obtained:
[1] = system: Escherichia coli ATCC 10536; experiment: MIC by agar dilution; assay type: cell-based; settings: ATCC10536, 37 °C, 20 h, read-out: Minimum inhibitory concentration (MIC)
Experimental: (§1) The MICs of the synthesized compound were determined by agar dilution method according to the Clinical Laboratory and Standards Institute Guidelines (CLSI, 2015). Briefly, the tested strains were incubated overnight in tryptic soy broth (TSB) (Oxoid, United Kingdom) and then diluted in Muller–Hinton (MH) broth (Oxoid, United Kingdom) to turbidity approximating to the equivalent of 0.5 McFarland standard. The suspensions were further diluted with sterile saline (1:10) and standardized inoculums (approximately 10^4 CFU per spot) were spotted on the surfaces of MH agar (Oxoid, United Kingdom) plates containing different concentrations of tested compounds and a control plate. The MICs were the lowest concentrations that inhibit growth on the plates after incubation at 37 °C for 20 h.

[2] = system: Klebsiella pneumoniae ATCC 27736; experiment: MIC by agar dilution; assay type: cell-based; settings: ATCC27736, 37 °C, 20 h, read-out: Minimum inhibitory concentration (MIC)
Experimental: as §1

[3] = system: Micrococcus spp. ATCC 10240; experiment: MIC by agar dilution; assay type: cell-based; settings: ATCC10240, 37 °C, 20 h, read-out: Minimum inhibitory concentration (MIC)
Experimental: as §1

[4] = system: Salmonella typhimurium ATCC 14028; experiment: MIC by agar dilution; assay type: cell-based; settings: Salmonella enterica, 37 °C, 20 h, read-out: Minimum inhibitory concentration (MIC)
Experimental: as §1

[5] = system: Staphylococcus aureus ATCC 6538; experiment: MIC by agar dilution; assay type: cell-based; settings: ATCC6538, 37 °C, 20 h, read-out: Minimum inhibitory concentration (MIC)
Experimental: as §1

[6] = system: Staphylococcus epidermidis ATCC 12228; experiment: MIC by agar dilution; assay type: cell-based; settings: ATCC12228, 37 °C, 20 h, read-out: Minimum inhibitory concentration (MIC)
Experimental: as §1

[7] = system: Pseudomonas aeruginosae ATCC 47085; experiment: MIC by agar dilution; assay type: cell-based, Pseudomonas aeruginosa; settings: ATCC47085, 37 °C, 20 h, read-out: Minimum inhibitory concentration (MIC)
Experimental: as §1

[8] = system: Aspergillus niger ATCC 16404; experiment: MIC by agar dilution (antifungal); assay type: cell-based; settings: for MIC: ATCC16404, read-out: Minimum inhibitory concentration (MIC)
Experimental: as §1

[9] = system: Candida albicans ATCC 10231; experiment: MIC by agar dilution (antifungal); assay type: cell-based; settings: for MIC: Candida albicans, ATCC10231, Candida albicans ATCC 10231, read-out: Minimum inhibitory concentration (MIC)
Experimental: as §1

[10] = system: BxPC-3; experiment: SRB cellular proliferation assay; assay type: cell-based, human; settings: Homo sapiens, BxPC-3 cells, mean ± SD (n = 3), read-out: IC50
Experimental: (§2) The pancreatic human cancer cell lines BxPC-3 and Panc-1, the human hepatocellular carcinoma (HepG-2), and the normal immortalized pancreatic cell line HPDE, that were used in this study, were obtained from the American Type Culture Collection (Rockville, USA). Cell lines were cultured and treated with the tested compounds or dimethyl sulfoxide (DMSO) as previously described. Cells were cultivated in DMEM medium (Invitrogen, Carlsbad, CA, USA), supplemented with streptomycin, penicillin and fetal bovine serum (FCS) (Invitrogen, Carlsbad, CA, USA). The sulforhodamine B (SRB) assay was employed to assess the anti-proliferative effects of tested compounds on cancer cells. Cell lines were incubated and regularly treated with DMSO or increasing doses of tested compounds for 48 h. The cells were fixed with 10% trichloroacetic acid and stained with SRB fluorescent dye for 30 min. Then, the bounded SRB dye to cellular proteins was dissolved in 10 mM Tris base after washing excess dye with 1% acetic acid. The absorbance was measured at 510 nm in a reader (Biotek, Winooski, VT, USA).

[11] = system: HepG-2; experiment: SRB cellular proliferation assay; assay type: cell-based, human; settings: Homo sapiens, HepG2, HepG-2 cells, mean ± SD (n = 3), read-out: IC50
Experimental: as §2

[12] = system: Panc-1; experiment: SRB cellular proliferation assay; assay type: cell-based, human; settings: Homo sapiens, Panc-1 cells, mean ± SD (n = 3), read-out: IC50
Experimental: as §2

[13] = system: S. aureus ATCC 6538; experiment: Biofilm formation assay (crystal violet, light microscopy); assay type: cell-based, Staphylococcus aureus; settings: sub-MIC, light microscopy image
Experimental: (§3) Bacterial virulence is regulated via a quorum sensing (QS) system in an inducer/receptor manner. Diminishing bacterial virulence is an advantageous strategy to decrease the development of bacterial resistance. In this direction, anti-virulence and anti-QS activities have been explored in several studies as reviewed. The ability of P. aeruginosa or S. aureus to form biofilms was assayed in the absence or presence of tested compounds at sub-MIC. […] The experiment was conducted in triplicate and a one-way ANOVA test was employed to test the statistical significance using Graphpad Prism 8 software. The results were significant statistically where p values < 0.05. Moreover, microscopic visualization of biofilm under the effect of tested compounds was also performed by light microscopy. Representative images for the inhibitory effects on S. aureus and P. aeruginosa biofilm formation are shown (Figure 3C,D). The microscopic images show a marked reduction in both the thickness of and surface area covered by the biofilms in presence of the tested compound.
(§4) In order to evaluate the ability of the tested compounds to inhibit the biofilm formation, a strong biofilm forming P. aeruginosa ATCC 47,085 [47, 66] and S. aureus ATCC 6538 [67] strains were used. As described earlier, suspensions of tested strains were prepared from overnight cultures in TSB and their optical densities were adjusted to OD600 of 0.4 (1×10^8 CFU/mL). Aliquots of 10 μL of the suspensions were added to 1 mL amounts of fresh TSB with or without sub-MICs of tested compounds. […] The non-adherent cells were removed, the wells were washed with sterile PBS, and left to dry. The attached biofilm forming cells were fixed with methanol for 25 min and stained with 1% crystal violet for 30 min. The excess dye was washed out and the crystal violet staining adhered biofilm forming cells were eluted by glacial acetic acid (33%). The experiment was conducted in triplicate and the absorbance was measured at 590 nm. The absorbances of tested strains treated with different compounds were expressed as mean ± standard error of percentage change from untreated tested strains control. The percentages of biofilm inhibition were calculated employing the following formula: (absorbance of control—absorbance in presence of tested compounds)/absorbance of control.

[14] = system: P. aeruginosa ATCC 47,085; experiment: as above; assay type: cell-based, Pseudomonas aeruginosa; settings: sub-MIC, light microscopy image
Experimental: as §3, §4

SMILES	MIC [1] [µg/mL]	MIC [2] [µg/mL]	MIC [3] [µg/mL]	MIC [4] [µg/mL]	MIC [5] [µg/mL]	MIC [6] [µg/mL]	MIC [7] [µg/mL]	MIC [8] [µg/mL]	MIC [9] [µg/mL]	IC50 [10] [µg/mL]	IC50 [11] [µg/mL]	IC50 [12] [µg/mL]	melting point [°C]	Minimum inhibitory concentration (MIC) [8] [µg/mL]	Minimum inhibitory concentration (MIC) ([9]; Candida albicans ATCC 10231) [µg/mL]	Biofilm formation, microscopic visualization [13]	Biofilm formation, microscopic visualization [14]
Cc1ccc(S(=O)(=O)Nc2ccccc2C2=N/C(=C/c3ccco3)C(=O)O2)cc1 [Compound 9i, (E)-N-(2-(4-(Furan-2-ylmethylene)-5-oxo-4,5-dihydrooxazol-2-yl)phenyl)-4-methylbenzenesulfonamide]	> 32	> 32	2 (≈ 4.9 µM)	> 32	2 (≈ 4.9 µM)	2 (≈ 4.9 µM)	> 32	> 32	> 32	21.8 ± 2.98 (≈ 53.4 µM)	27 ± 5.32 (≈ 66.1 µM)	16.1 ± 1.82 (≈ 39.5 µM)	191 to 193	–	–	–	–
COc1cc(/C=C2/N=C(c3ccccc3NS(=O)(=O)c3ccc(C)cc3)OC2=O)cc(OC)c1OC [Compound 9d, (E)-4-Methyl-N-(2-(5-oxo-4-(3,4,5-trimethoxybenzylidene)-4,5-dihydrooxazol-2-yl)phenyl)be-nzenesulfonamide]	4 (≈ 7.87 µM)	16 (≈ 31.5 µM)	2 (≈ 3.93 µM)	16 (≈ 31.5 µM)	4 (≈ 7.87 µM)	2 (≈ 3.93 µM)	32 (≈ 62.9 µM)	> 32	> 32	18.1 ± 3.56 (≈ 35.5 µM)	22.7 ± 2.3 (≈ 44.7 µM)	25.3 ± 1.91 (≈ 49.8 µM)	230 to 232	–	–	–	–
COc1cccc2c1C(=O)c1c(O)c3c(c(O)c1C2=O)C[C@@](O)(C(=O)CO)C[C@@H]3O[C@H]1C[C@H](N)[C@H](O)[C@H](C)O1 [Doxorubicin, reference compound]	–	–	–	–	–	–	–	–	–	7.31 ± 1.12 (≈ 13.4 µM)	5.11 ± 0.98 (≈ 9.4 µM)	6.9 ± 0.93 (≈ 12.7 µM)	–	–	–	–	–
C[C@@H]1[C@H](O)[C@@H](C)/C=C/C=C/CC/C=C/C=C/C=C/C=C/C(O[C@H]2O[C@H](C)[C@@H](O)[C@H](N)[C@@H]2O)CC2O[C@](O)(CC(O)C(O)CCC(O)CC(O)CC(O)CC(=O)O[C@H]1C)CC(O)C2C(=O)O (stereo partly shown) [Nystatin, reference compound]	–	–	–	–	–	–	–	–	–	–	–	–	–	4 (≈ 4.32 µM)	4 (≈ 4.32 µM)	–	–
Cc1ccc(S(=O)(=O)Nc2ccccc2C2=N/C(=C/c3ccc(OCc4ccccc4)cc3)C(=O)O2)cc1 [Compound 9g, (E)-N-(2-(4-(4-(Benzyloxy)benzylidene)-5-oxo-4,5-dihydrooxazol-2-yl)phenyl)-4-methylbenzenesulfonamide]	2 (≈ 3.81 µM)	8 (≈ 15.2 µM)	2 (≈ 3.81 µM)	16 (≈ 30.5 µM)	2 (≈ 3.81 µM)	2 (≈ 3.81 µM)	16 (≈ 30.5 µM)	> 32	> 32	25.7 ± 4.89 (≈ 49 µM)	32.5 ± 1.45 (≈ 62 µM)	29.3 ± 4.23 (≈ 55.8 µM)	235 to 237	–	–	–	–
Cc1cc(NS(=O)(=O)c2ccc(N)cc2)no1 [Sulphamethoxazole, reference compound]	1 (≈ 3.95 µM)	2 (≈ 7.9 µM)	1 (≈ 3.95 µM)	2 (≈ 7.9 µM)	2 (≈ 7.9 µM)	2 (≈ 7.9 µM)	4 (≈ 15.8 µM)	–	–	–	–	–	–	–	–	–	–
Cc1ccc(S(=O)(=O)Nc2ccccc2C2=N/C(=C/c3ccc(Cl)cc3)C(=O)O2)cc1 [Compound 9e, (E)-N-(2-(4-(4-Chlorobenzylidene)-5-oxo-4,5-dihydrooxazol-2-yl)phenyl)-4-methylbenzenesulfonamide]	4 (≈ 8.83 µM)	2 (≈ 4.42 µM)	2 (≈ 4.42 µM)	4 (≈ 8.83 µM)	2 (≈ 4.42 µM)	2 (≈ 4.42 µM)	8 (≈ 17.7 µM)	16 (≈ 35.3 µM)	8 (≈ 17.7 µM)	13.3 ± 1.57 (≈ 29.3 µM)	15 ± 2.89 (≈ 33.2 µM)	12.2 ± 1.29 (≈ 26.8 µM)	234 to 236	–	–	markedly reduced	markedly reduced
Cc1ccc(S(=O)(=O)Nc2ccccc2C2=N/C(=C/c3cccs3)C(=O)O2)cc1 [Compound 9j, (E)-4-Methyl-N-(2-(5-oxo-4-(thiophen-2-ylmethylene)-4,5-dihydrooxazol-2-yl)phenyl)benzenesulfonamide]	> 32	> 32	8 (≈ 18.8 µM)	> 32	16 (≈ 37.7 µM)	8 (≈ 18.8 µM)	> 32	> 32	> 32	21.4 ± 2.15 (≈ 50.5 µM)	25.54 ± 0.144 (≈ 60.2 µM)	16 ± 3.18 (≈ 37.8 µM)	196 to 198	–	–	–	–
CO/N=C(\C(=O)N[C@@H]1C(=O)N2C(C(=O)O)=C(COC(C)=O)CS[C@H]12)c1csc(N)n1 [Cefotaxime, reference compound]	0.125 (≈ 0.274 µM)	0.5 (≈ 1.1 µM)	0.25 (≈ 0.549 µM)	1 (≈ 2.2 µM)	0.5 (≈ 1.1 µM)	0.25 (≈ 0.549 µM)	1 (≈ 2.2 µM)	–	–	–	–	–	–	–	–	–	–
CC1(C)S[C@@H]2[C@H](NC(=O)[C@H](N)c3ccc(O)cc3)C(=O)N2[C@H]1C(=O)O [Amoxycillin, reference compound]	0.5 (≈ 1.37 µM)	1 (≈ 2.74 µM)	0.25 (≈ 0.684 µM)	1 (≈ 2.74 µM)	0.5 (≈ 1.37 µM)	0.5 (≈ 1.37 µM)	2 (≈ 5.47 µM)	–	–	–	–	–	–	–	–	–	–
COc1ccc(OC)c(/C=C2/N=C(c3ccccc3NS(=O)(=O)c3ccc(C)cc3)OC2=O)c1 [Compound 9c, (E)-N-(2-(4-(2,5-diMethoxybenzylidene)-5-oxo-4,5-dihydrooxazol-2-yl)phenyl)-4-methylbenzenesulfonamide]	4 (≈ 8.36 µM)	8 (≈ 16.7 µM)	4 (≈ 8.36 µM)	8 (≈ 16.7 µM)	8 (≈ 16.7 µM)	4 (≈ 8.36 µM)	16 (≈ 33.4 µM)	8 (≈ 16.7 µM)	4 (≈ 8.36 µM)	21.5 ± 1.08 (≈ 44.9 µM)	19.1 ± 3.23 (≈ 39.9 µM)	15.1 ± 4.13 (≈ 31.6 µM)	220 to 222	–	–	–	–
